Data published in PMC4878759 (PLoS ONE, 2016).

Columns and labels:
human ANO1(abc) = biological target: T1, human ANO1(abc) (Homo sapiens, UniProt Q5XXA6, DEL476-501); assay: YFP fluorescence plate reader assay of iodide influx in ANO1 expressing FRT cells; format: cell-based; conditions: read-out: IC50 of ANO1 inhibition
T1 construct: expressed in transfected cells
T1 sequence (Q5XXA6 with tags, fused parts or gaps isoform Q5XXA6-5 DEL539-564): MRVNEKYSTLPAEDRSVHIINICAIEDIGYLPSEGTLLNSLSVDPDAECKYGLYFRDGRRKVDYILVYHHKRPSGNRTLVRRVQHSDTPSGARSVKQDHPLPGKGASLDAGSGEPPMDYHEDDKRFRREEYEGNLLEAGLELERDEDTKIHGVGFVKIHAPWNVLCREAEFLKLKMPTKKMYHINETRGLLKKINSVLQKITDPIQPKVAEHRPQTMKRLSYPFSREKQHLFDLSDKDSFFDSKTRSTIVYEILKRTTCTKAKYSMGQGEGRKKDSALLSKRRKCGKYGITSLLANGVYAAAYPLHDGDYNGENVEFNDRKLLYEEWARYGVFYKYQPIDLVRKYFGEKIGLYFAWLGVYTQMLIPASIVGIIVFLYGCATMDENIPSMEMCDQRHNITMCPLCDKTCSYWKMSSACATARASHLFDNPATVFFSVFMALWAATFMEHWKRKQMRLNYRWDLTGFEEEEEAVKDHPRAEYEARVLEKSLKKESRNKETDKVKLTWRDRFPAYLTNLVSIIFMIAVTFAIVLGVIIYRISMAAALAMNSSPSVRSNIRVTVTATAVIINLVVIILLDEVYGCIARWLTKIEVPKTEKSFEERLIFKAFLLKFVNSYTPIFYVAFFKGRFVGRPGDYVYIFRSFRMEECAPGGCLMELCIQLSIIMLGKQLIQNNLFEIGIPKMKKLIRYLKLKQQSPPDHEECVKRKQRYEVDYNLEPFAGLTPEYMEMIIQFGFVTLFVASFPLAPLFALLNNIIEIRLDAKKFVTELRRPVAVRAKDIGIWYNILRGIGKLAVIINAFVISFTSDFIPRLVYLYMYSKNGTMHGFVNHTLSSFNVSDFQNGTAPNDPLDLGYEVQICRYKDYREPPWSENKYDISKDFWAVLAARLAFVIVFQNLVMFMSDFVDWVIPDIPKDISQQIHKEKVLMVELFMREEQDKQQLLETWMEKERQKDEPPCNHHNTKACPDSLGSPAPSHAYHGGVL
Procedure: Cell based screening was performed as described in previous study. Briefly, ANO1 and YFP expressing FRT cells were plated in 96-well black-walled microplates (Corning Inc., Corning, NY) at a density of 20,000 cells per well, and then cultured for 2 days. Assays were done using FLUOstar Omega microplate reader (BMG Labtech, Ortenberg, Germany) and MARS Data Analysis Software (BMG Labtech). Each well of 96-well plate was washed 3 times in PBS (200 μL/wash), leaving 100 μL PBS. Test compounds (1 μL) were added to each well at 25 μM final concentration. After 10 min, 96-well plates were transferred to a plate reader for fluorescence assay. Each well was assayed individually for TMEM16A-mediated I^- influx by recording fluorescence continuously (400 ms per point) for 1 s (baseline), then 100 μL of 140 mM I^- solution containing 200 μM ATP was added at 1 s and then YFP fluorescence was recorded for 5 s. Initial iodide influx rate was determined from the initial slope of fluorescence decrease, by nonlinear regression, following infusion of iodide with ATP.
ANO1 chloride channel activity was measured using Fischer rat thyroid (FRT) cells stably expressing human ANO1(abc) and the genetically encoded iodide-sensing fluorescent protein, YFP-F46L/H148Q/I152L. This cell model was used because of our prior success in ANO1 chloride channel drug discovery. For the screening to identify ANO1 inhibitors, the FRT cells were pre-incubated with test compounds for 10 minutes prior to addition of an iodide and ATP, an agonist of P2 purinergic receptor which induces an increase in intracellular calcium concentration and activation of ANO1, containing solution.

mouse ANO2 = biological target: T2, mouse ANO2 (Mus musculus, UniProt Q8CFW1); assay: YFP quenching assay in FRT cells expressing ANO2; format: cell-based; conditions: dose dependent, 100 μM ATP
T2 sequence (Q8CFW1 1-1002): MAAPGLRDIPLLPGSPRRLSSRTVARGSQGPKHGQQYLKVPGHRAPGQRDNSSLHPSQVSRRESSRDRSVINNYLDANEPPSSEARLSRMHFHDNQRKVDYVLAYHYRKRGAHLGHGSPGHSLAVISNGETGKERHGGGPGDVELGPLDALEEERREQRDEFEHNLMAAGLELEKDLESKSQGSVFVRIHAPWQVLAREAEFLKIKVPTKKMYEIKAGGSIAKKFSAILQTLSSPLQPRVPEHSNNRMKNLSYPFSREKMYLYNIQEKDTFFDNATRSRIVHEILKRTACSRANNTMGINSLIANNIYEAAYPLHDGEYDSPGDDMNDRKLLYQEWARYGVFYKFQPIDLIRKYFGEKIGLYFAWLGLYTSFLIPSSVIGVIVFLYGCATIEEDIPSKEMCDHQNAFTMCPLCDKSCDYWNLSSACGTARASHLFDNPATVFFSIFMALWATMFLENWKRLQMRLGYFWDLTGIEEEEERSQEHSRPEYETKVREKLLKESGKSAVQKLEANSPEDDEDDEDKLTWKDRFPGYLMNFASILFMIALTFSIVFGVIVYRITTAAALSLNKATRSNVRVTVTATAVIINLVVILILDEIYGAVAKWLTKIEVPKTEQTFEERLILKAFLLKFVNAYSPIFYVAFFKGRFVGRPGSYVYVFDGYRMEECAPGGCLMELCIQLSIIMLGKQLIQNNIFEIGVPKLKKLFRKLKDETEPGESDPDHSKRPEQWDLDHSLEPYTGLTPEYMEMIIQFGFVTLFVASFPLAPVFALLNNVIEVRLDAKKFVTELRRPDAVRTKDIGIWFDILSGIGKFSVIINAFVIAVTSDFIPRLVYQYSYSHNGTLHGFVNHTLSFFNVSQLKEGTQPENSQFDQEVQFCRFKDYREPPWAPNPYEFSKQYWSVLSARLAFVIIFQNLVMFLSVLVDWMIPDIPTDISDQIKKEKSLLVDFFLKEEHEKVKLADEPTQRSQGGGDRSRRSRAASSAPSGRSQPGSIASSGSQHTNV

ANO1 = biological target: T3, ANO1 (Homo sapiens, UniProt Q5XXA6, DEL476-501); assay: Apical membrane current in ANO1 expressing FRT cells; format: cell-based; conditions: 100 μM ATP
T3 construct: expressed in transfected cells
T3 sequence (Q5XXA6 with tags, fused parts or gaps isoform Q5XXA6-5 DEL539-564): T1 sequence (Q5XXA6 with tags, fused parts or gaps isoform Q5XXA6-5 DEL539-564)
Procedure: (§1) Snapwell inserts containing ANO1, ANO2 or CFTR expressing FRT cells, ENaC expressing T-84 cells or the human primary airway epithelial cells were mounted in Ussing chambers (Physiologic Instruments, San Diego, CA). To induce transcriptional ENaC induction, the polarized T84 cells were incubated with 2 mM sodium butyrate for 2 days. To increase the functional expression of ANO1, the human airway epithelial cells were treated with IL-4 (10 ng/mL) for 2 days. For T-84 and the human primary airway epithelial cells, the apical and basolateral bath were filled with HCO3^—buffered solution containing (in mM): 120 NaCl, 5 KCl, 1 MgCl2, 1 CaCl2, 10 D-glucose, 2.5 HEPES, and 25 NaHCO3 (pH 7.4). For FRT cells, the basolateral bath was filled with the HCO3^—buffered solution and the apical bath was filled with a half-Cl^- solution. In the half-Cl^- solution 65 mM NaCl in the HCO3^—buffered solution was replaced by Na-gluconate. […] ATP was applied to the apical bath solution to induce intracellular calcium increase. […] Apical membrane currents were measured with an EVC4000 Multi-Channel V/I Clamp (World Precision Instruments, Sarasota, FL) and PowerLab 4/35 (AD Instruments, Castle Hill, Australia). Data were analyzed using Labchart Pro 7 (AD Instruments). The sampling rate was 4 Hz.

ANO2 = biological target: T4, ANO2 (Mus musculus, UniProt Q8CFW1); assay: Apical membrane current in FRT-ANO2 cells; format: cell-based; conditions: 10 μM pretreatment
T4 sequence (Q8CFW1 1-1002): T2 sequence (Q8CFW1 1-1002)
Procedure: as §1
ANO1 belongs to anoctamin gene family which contains ten members presenting eight-pass transmembrane segments with cytosolic N- and C-terminals. ANO2 shares a high level of amino acid homology to ANO1 (~60%) and, ANO1 and ANO2 are confirmed CaCCs. However, the roles of other family members (ANO3-ANO10) remain poorly understood and controversial. […] We investigated the effect of these inhibitors on ANO2-mediated apical membrane current in FRT-ANO2 cells.

VRAC [1] = assay: VRAC activity by YFP quenching in LN215 cells; format: cell-based, human; conditions: 10 μM
Procedure: LN215 cells, a human glioma cell line, were stably transfected with YFP-F46L/H148Q/I152L, a halide sensor YFP. After the cells were incubated on 96well black plates (Corning Inc., Corning, NY) for 48 hours, each well of the 96-well plate was washed 3 times in PBS (200 μL/wash), and the wells were filled with 50 μl/well isotonic solution (in mM): 140 NaCl, 5 KCl, 20 HEPES (310 mOsm/kg; pH 7.4 with NaOH). In each well, VRAC expressed on the cells were stimulated with addition of 50 μl of hypotonic solutions (in mM): 5 KCl, 20 HEPES, 90 mannitol (120 mOsm/kg). Test compounds (1 μL) were added to each well in a dose dependent manner. After 5 min, 96-well plates were transferred to a plate reader for fluorescence assay. Each well was assayed individually for VRAC-mediated I^- influx by recording fluorescence continuously (400 ms per point) for 7.6 s. YFP fluorescence was recorded 0.4 s for baseline, then 100 μL of 140 mM I^- solution was added at 0.4 s to see the change in fluorescence. Initial iodide influx rate was determined from the initial slope of fluorescence decrease, by nonlinear regression, following infusion of iodide.

VRAC [2] = tested on: VRAC; design: method as in PMID 24965069, PMID 25163766, PMID 26438191; conditions: ref [26]–[28]; cited from earlier work
human wild-type CFTR = biological target: T5, human wild-type CFTR (Homo sapiens, UniProt P13569); assay: Apical membrane current in FRT cells expressing CFTR; format: cell-based; conditions: 10 μM, CFTR activated by 20 μM forskolin
T5 construct: expressed in transfected cells; host or cells: Fischer rat thyroid (FRT) cells
Procedure: as §1
ANO1 was activated by either 10 μM Eact, an ANO1 activator, or 100 μM ATP.

T5 sequence (P13569 whole entry): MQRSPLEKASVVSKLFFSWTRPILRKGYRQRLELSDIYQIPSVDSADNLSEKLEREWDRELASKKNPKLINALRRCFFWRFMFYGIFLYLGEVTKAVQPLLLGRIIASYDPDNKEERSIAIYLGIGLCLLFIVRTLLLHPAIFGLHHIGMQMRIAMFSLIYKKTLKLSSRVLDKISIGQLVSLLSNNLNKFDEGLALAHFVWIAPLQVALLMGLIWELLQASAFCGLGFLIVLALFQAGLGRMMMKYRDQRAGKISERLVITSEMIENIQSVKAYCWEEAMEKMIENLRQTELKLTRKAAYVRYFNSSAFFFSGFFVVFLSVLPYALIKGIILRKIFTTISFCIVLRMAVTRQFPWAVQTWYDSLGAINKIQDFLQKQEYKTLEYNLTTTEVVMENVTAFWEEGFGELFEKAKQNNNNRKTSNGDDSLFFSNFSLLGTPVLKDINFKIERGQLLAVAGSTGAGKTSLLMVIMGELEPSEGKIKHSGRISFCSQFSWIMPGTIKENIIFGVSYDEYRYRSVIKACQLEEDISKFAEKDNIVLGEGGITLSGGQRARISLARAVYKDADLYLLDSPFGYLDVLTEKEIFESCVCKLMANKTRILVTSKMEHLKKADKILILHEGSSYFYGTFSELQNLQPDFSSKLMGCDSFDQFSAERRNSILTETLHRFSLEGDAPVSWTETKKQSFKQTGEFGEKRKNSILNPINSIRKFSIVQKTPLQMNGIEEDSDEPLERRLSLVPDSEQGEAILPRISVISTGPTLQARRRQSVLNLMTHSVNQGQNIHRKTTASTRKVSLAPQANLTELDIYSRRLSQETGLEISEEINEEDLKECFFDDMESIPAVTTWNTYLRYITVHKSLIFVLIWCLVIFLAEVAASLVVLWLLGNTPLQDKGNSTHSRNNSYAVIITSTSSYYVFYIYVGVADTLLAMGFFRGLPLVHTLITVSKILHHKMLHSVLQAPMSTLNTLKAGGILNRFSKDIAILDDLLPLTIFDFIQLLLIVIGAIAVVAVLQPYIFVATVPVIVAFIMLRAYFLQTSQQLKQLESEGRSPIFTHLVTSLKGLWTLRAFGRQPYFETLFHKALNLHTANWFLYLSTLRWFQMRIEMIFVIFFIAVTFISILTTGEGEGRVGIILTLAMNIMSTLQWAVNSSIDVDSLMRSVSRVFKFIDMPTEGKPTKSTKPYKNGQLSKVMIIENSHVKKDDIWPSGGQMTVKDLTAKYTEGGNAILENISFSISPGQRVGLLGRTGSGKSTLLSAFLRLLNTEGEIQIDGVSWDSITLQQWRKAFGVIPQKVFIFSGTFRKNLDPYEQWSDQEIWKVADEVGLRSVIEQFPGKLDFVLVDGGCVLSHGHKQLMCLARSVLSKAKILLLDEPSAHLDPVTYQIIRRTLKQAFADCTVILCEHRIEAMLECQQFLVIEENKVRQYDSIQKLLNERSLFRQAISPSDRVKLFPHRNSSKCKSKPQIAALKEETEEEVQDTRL

Row | Molecule | IC50 (human ANO1(abc)) | also measured
1 | CCOc1ccc(Br)cc1/C=N/NC(=O)COc1ccc(Cl)cc1Cl [#1] | 194 nM | 
2 | COc1ccc(OC)c(/C=N/NC(=O)COc2ccc(Cl)cc2C)c1 [#2] | 262 nM | 
3 | Cc1cc(Cl)ccc1OCC(=O)N/N=C/c1ccc(O)cc1 [#3] | 301 nM | 
4 | COc1ccccc1/C=N/NC(=O)COc1ccc(Br)cc1OC [#4] | 438 nM | 
5 | COc1ccccc1/C=N/NC(=O)COc1ccc(I)cc1 [#5] | 481 nM | 
6 | CCc1ccc(Br)cc1/C=N/NC(=O)COc1ccc(Br)cc1 [#6] | 512 nM | 
7 | Cc1cc(Cl)ccc1OCC(=O)N/N=C/c1ccc(O)cc1O [#7] | 572 nM | 
8 | CCOc1cc(I)cc(/C=N/NC(=O)COc2cccc(C)c2C)c1O [#8] | 894 nM | 
9 | Cc1cc(Cl)ccc1OCC(=O)N/N=C/c1ccccc1O [#9] | 1020 nM | 
10 | COc1cc(Nc2ccc([N+](=O)[O-])cc2C(=O)O)cc2ccccc12 [MONNA, N-((4-methoxy)-2-naphthyl)-5-nitroanthranilic acid] |  | effect on ANO2 activity (mouse ANO2): potently blocked; inhibition of ATP-induced ANO1 current (ANO1; 10 μM pretreatment): almost complete inhibition; IC50 (ANO1; apical membrane current, 20 min pretreatment, read-out: IC50 of ATP-induced ANO1 activation): 1950 ± 1160 nM; effect on ATP-induced ANO2 current (ANO2): strongly blocked; inhibition of VRAC activity (VRAC [1]): 87.9 ± 1.7%
11 | O=C(Nc1cc(C(F)(F)F)cc(C(F)(F)F)c1)Nc1ccc(Br)cc1-c1nnn[nH]1 [NS3728] |  | block of VRAC activity (VRAC [2]): potently blocked
12 | CFTRinh-172 |  | effect on CFTR channel activity (human wild-type CFTR): inhibited
